Reference: PMC3735939, “The low levels of eicosapentaenoic acid in rat brain phospholipids are maintained via multiple redundant mechanisms” (Journal of Lipid Research, 2013)
Several values for one entry are separate records, joined by “and”; a condition that tells them apart may be missing. Equal entries are not always repeated.

Assays:
[1] = Identification of radiolabeled FAs in brain phospholipids by HPLC and LSC after 14C-EPA infusion; format: in vivo, rat; settings: for percent of total radiolabeled FAs: brain total phospholipids;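 for radiolabeled FA composition: percent of radiolabeled FAs within each phospholipid class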
Procedure: (§1) Twenty-four hours postsurgery, a second catheter (iv catheter 24 gauge/0.75 inch, Angiocath™; Becton Dickinson) was implanted into the tail vein where rats received either vehicle or 10 mg/kg of MEP. Ten minutes post injection of vehicle or MEP, the tail vein catheter was connected to a syringe containing radiolabeled ^14C-palmitate (n = 8), ^14C-DHA (n = 6), or ^14C-EPA (n = 7) attached to a computer-controlled variable speed pump (PHD 22/2000; Harvard Apparatus, Holliston, MA). […] Each rat received a dose of 76 μCi ^14C-palmitate, 76 μCi ^14C-DHA, or 78 μCi ^14C-EPA. […] The radiotracer infusions continued until rats were euthanized. The brain was excised and cut sagittally. Both hemispheres were stored at −80°C for radioactive and biochemical analyses. Plasma was isolated from whole blood via microcentrifugation at 6,200 rpm (2,000 g) for 5 min and stored at −80°C. Total lipids from one brain hemisphere and from plasma were extracted by the method of Folch, Lees, and Sloane Stanley ([39]). Isolation of various neutral lipid and phospholipid classes from the total lipid extract was previously described by Chen, Liu, and Bazinet ([6]). FA methyl esters and radioactive acyl-CoA analysis were previously described by Chen, Liu, and Bazinet ([6]).

[2] = tested on: mitochondrial FA β-oxidation; assay: Radioactivity in brain aqueous fraction (marker of β-oxidation) after 5 min intravenous 14C-tracer infusion; format: in vivo, rat; settings: vehicle injection; 5 min iv infusion of tracer
Procedure: as §1, with “([6]).” for “([6]). FA methyl esters and radioactive acyl-CoA analysis were previously described by Chen, Liu, and Bazinet ([6]).”

[3] = In vivo kinetics of FA incorporation and turnover in brain phospholipids (intravenous radiotracer infusion, kinetic model); set-up: species or system rat
Procedure: Twenty-four hours postsurgery, a second catheter (iv catheter 24 gauge/0.75 inch, Angiocath™; Becton Dickinson) was implanted into the tail vein where rats received either vehicle or 10 mg/kg of MEP. […] The radiotracers were infused for 5 min via the tail vein catheter at a rate of 0.223(1 + e^−19.2t) ml/min (t is infusion time in minutes) ([37]) which achieves a steady-state plasma radioactivity within 1 min ([18], [38]). […] During the 5 min infusion, blood samples were collected from the jugular vein at approximately 0, 0.25, 0.5, 0.75, 1.5, 3, 4, and 5 min while the unanesthetized rat was mobile in the infusion box with food and water. […] After 5 min, the rats were rapidly euthanized by head-focused high-energy microwave irradiation (13.5 kW for 1.6 s; Cober Electronics Inc., Stratford, CT). The radiotracer infusions continued until rats were euthanized. The brain was excised and cut sagittally. Both hemispheres were stored at −80°C for radioactive and biochemical analyses. Plasma was isolated from whole blood via microcentrifugation at 6,200 rpm (2,000 g) for 5 min and stored at −80°C.
The model for in vivo kinetics of brain FAs in rats has been previously described ([17], [18], [21], [23], [25], [37], [41]).
Because the infusion is 5 min, contributions of FA from de novo synthesis and esterified plasma FA are negligible ([18], [20], [23], [41]); thus only contributions from plasma unesterified FAs and acyl-CoA pools were considered in the calculation of λpalmitate, DHA, or EPA .

[4] = cited from earlier work
[5] = cited from earlier work; remark: listed apart in the source

Compound: CC/C=C\C/C=C\C/C=C\C/C=C\C/C=C\C/C=C\CCC(=O)O [DHA, docosahexaenoic acid]
- radiolabeled FA composition ([1]; ChoGpl, MEP-treated rats): 4%
- radiolabeled FA composition ([1]; ChoGpl, vehicle-treated rats): 11%
- radiolabeled FA composition ([1]; EtnGpl, MEP-treated rats): 14%
- radiolabeled FA composition ([1]; EtnGpl, vehicle-treated rats): 29%
- percent of total radiolabeled FAs ([1]; MEP-treated rats): 3%
- percent of total radiolabeled FAs ([1]; vehicle-treated rats): 10%
- radioactivity of brain aqueous fraction [2]: 17 nCi/g brain
- FFA rate of turnover ([3]; ChoGpl, MEP): 90 ± 20 %/day
- JFA net incorporation rate from brain acyl-CoA ([3]; ChoGpl, MEP): 1,234 ± 344 nmol/g/day
- Jin net incorporation rate from plasma unesterified FA ([3]; ChoGpl, MEP): 4.3 ± 0.38 nmol/g/day
- FFA rate of turnover ([3]; ChoGpl, Vehicle): 150 ± 14 %/day
- JFA net incorporation rate from brain acyl-CoA ([3]; ChoGpl, Vehicle): 2,146 ± 225 nmol/g/day
- Jin net incorporation rate from plasma unesterified FA ([3]; ChoGpl, Vehicle): 5.2 ± 0.62 nmol/g/day
- FFA rate of turnover ([3]; EtnGpl, MEP): 37 ± 9.6 %/day
- JFA net incorporation rate from brain acyl-CoA ([3]; EtnGpl, MEP): 2,030 ± 492 nmol/g/day
- Jin net incorporation rate from plasma unesterified FA ([3]; EtnGpl, MEP): 7.2 ± 1.2 nmol/g/day
- FFA rate of turnover ([3]; EtnGpl, Vehicle): 55 ± 5.4 %/day
- JFA net incorporation rate from brain acyl-CoA ([3]; EtnGpl, Vehicle): 3,233 ± 184 nmol/g/day
- Jin net incorporation rate from plasma unesterified FA ([3]; EtnGpl, Vehicle): 7.9 ± 1.4 nmol/g/day
- FFA rate of turnover ([3]; PtdIns, MEP): 308 ± 105 %/day
- JFA net incorporation rate from brain acyl-CoA ([3]; PtdIns, MEP): 477 ± 106 nmol/g/day
- Jin net incorporation rate from plasma unesterified FA ([3]; PtdIns, MEP): 1.7 ± 0.3 nmol/g/day
- FFA rate of turnover ([3]; PtdIns, Vehicle): 458 ± 156 %/day
- JFA net incorporation rate from brain acyl-CoA ([3]; PtdIns, Vehicle): 688 ± 144 nmol/g/day
- Jin net incorporation rate from plasma unesterified FA ([3]; PtdIns, Vehicle): 1.8 ± 0.078 nmol/g/day
- FFA rate of turnover ([3]; PtdSer, MEP): 8.4 ± 3.1 %/day
- JFA net incorporation rate from brain acyl-CoA ([3]; PtdSer, MEP): 198 ± 79 nmol/g/day
- Jin net incorporation rate from plasma unesterified FA ([3]; PtdSer, MEP): 0.68 ± 0.11 nmol/g/day
- FFA rate of turnover ([3]; PtdSer, Vehicle): 9.2 ± 2.1 %/day
- JFA net incorporation rate from brain acyl-CoA ([3]; PtdSer, Vehicle): 237 ± 50 nmol/g/day
- Jin net incorporation rate from plasma unesterified FA ([3]; PtdSer, Vehicle): 0.56 ± 0.053 nmol/g/day
- FFA rate of turnover ([3]; Total PL, MEP): 51 ± 10 %/day
- JFA net incorporation rate from brain acyl-CoA ([3]; Total PL, MEP): 4,390 ± 988 nmol/g/day
- Jin net incorporation rate from plasma unesterified FA ([3]; Total PL, MEP): 16 ± 1.2 nmol/g/day
- FFA rate of turnover ([3]; Total PL, Vehicle): 75 %/day and 75 ± 7.7 %/day
- JFA net incorporation rate from brain acyl-CoA ([3]; Total PL, Vehicle): 7,259 ± 958 nmol/g/day
- Jin net incorporation rate from plasma unesterified FA ([3]; Total PL, Vehicle): 17 nmol/g/day and 17 ± 1.8 nmol/g/day
- Jin, percent lower than reported Jin ([3]; rat, in vivo): 89–91%
- fold difference in λ between DHA and EPA ([3]; rat, in vivo): 50 fold
- λ dilution factor ([3]; vehicle): 0.0024 ± 0.0003
- FFA into brain total phospholipids, fold higher than EPA ([3]; vehicle injection): 4 fold
- Jin into brain total phospholipids, fold higher than EPA ([3]; vehicle injection): 3 fold
- t1/2, fold lower than EPA ([3]; vehicle injection): 4 fold
- Jout net rate of loss from brain phospholipids [4]: 58 to 257 nmol/g/day
- loss t1/2 from brain phospholipids [4]: 33 days
- rate of loss from brain phospholipids [4]: 2 % per day
- Jin, reported [5]: 150 to 190 nmol/g/day
